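Interpolation was linear, between the two tested concentrations surrounding the appropriate level; five concentrations were tested over 48 hours in 96-well plates. Here, GI50 denotes the concentration required for 50% inhibition of growth.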 Calls of active or inactive are those of the source. Cut-off read from the data, not from the text of the source: active = GI50 up to about 1.1 µM and inactive = higher.
Tests used:
Assay in all cases: DTP human tumour cell line panel, 48 h
[1] = test system: A498
[2] = test system: SF-268
[3] = test system: DU-145
[4] = test system: SR
[5] = test system: UO-31
[6] = test system: T47D
[7] = test system: SNB-19
[8] = test system: HCT-15
[9] = test system: NCI-H460
[10] = test system: MCF7
[11] = test system: UACC-62
[12] = test system: OVCAR-4
[13] = test system: HL-60
[14] = test system: KM12
[15] = test system: LOX IMVI
[16] = test system: NCI/ADR-RES
[17] = test system: SNB-75

SMILES | GI50 [1] | GI50 [2] | GI50 [3] | GI50 [4] | GI50 [5] | GI50 [6] | GI50 [7] | GI50 [8] [µM] | GI50 [9] | GI50 [10] | GI50 [11] | GI50 [12] | GI50 [13] | GI50 [14] | GI50 [15] | GI50 [16] | GI50 [17]
COc1ccc2cc(-c3ccc(OC)c(OC)c3)c(=O)oc2c1 | 96.8 µM (inactive) | 62.1 µM (inactive) | > 100 µM (inactive) | > 100 µM (inactive) | > 100 µM (inactive) | > 100 µM (inactive) | 40 µM (inactive) | > 100 | > 100 µM (inactive) | > 100 µM (inactive) | > 100 µM (inactive) | > 100 µM (inactive) | > 100 µM (inactive) | > 100 µM (inactive) | > 100 µM (inactive) | > 100 µM (inactive) | 
NCCc1ccc2c(c1)C(=O)c1c(O)ccc(O)c1C2=O | > 58.1 µM (inactive) | 4.13 µM (inactive) | > 19.8 µM (inactive) | 3.43 µM (inactive) | 4.65 µM (inactive) | 3.37 µM (inactive) | 4.72 µM (inactive) | 4.51 | > 20.7 µM (inactive) | 3.51 µM (inactive) | 5.86 µM (inactive) |  | 2.17 µM (inactive) | 4.72 µM (inactive) | 4.11 µM (inactive) | 3.93 µM (inactive) | 4.57 µM (inactive)
O=C1NCc2ccccc2S(=O)(=O)n2cccc21 |  | > 100 µM (inactive) | > 100 µM (inactive) | 6.28 µM (inactive) | > 100 µM (inactive) | 50.7 µM (inactive) | > 100 µM (inactive) | > 100 | > 100 µM (inactive) | > 100 µM (inactive) | > 100 µM (inactive) | > 100 µM (inactive) | > 100 µM (inactive) | > 100 µM (inactive) | > 100 µM (inactive) | > 100 µM (inactive) | > 100 µM (inactive)
C=CCC1(C)CCCN(Cc2ccccc2)C1=O (stereo not drawn) | 1.32 µM (inactive) | > 10 µM (inactive) | > 10 µM (inactive) | > 10 µM (inactive) | > 10 µM (inactive) | > 10 µM (inactive) | > 10 µM (inactive) | > 10 | > 10 µM (inactive) | > 10 µM (inactive) | > 10 µM (inactive) | > 10 µM (inactive) | > 10 µM (inactive) | > 10 µM (inactive) | > 10 µM (inactive) | > 10 µM (inactive) | 
Brc1ccc(-c2ccc(-c3ccc(-c4ccc(Br)s4)s3)s2)s1 | > 100 µM (inactive) | > 100 µM (inactive) | > 100 µM (inactive) | > 100 µM (inactive) | > 100 µM (inactive) | > 100 µM (inactive) |  | > 100 | > 100 µM (inactive) | > 100 µM (inactive) | > 100 µM (inactive) | > 100 µM (inactive) | > 100 µM (inactive) | > 100 µM (inactive) | > 100 µM (inactive) | > 100 µM (inactive) | > 100 µM (inactive)
CN(C)CCNC(=O)Cn1cc([N+](=O)[O-])c(=O)c2ccccc21 | > 100 µM (inactive) | > 100 µM (inactive) | > 100 µM (inactive) | > 100 µM (inactive) | > 100 µM (inactive) | > 100 µM (inactive) | > 100 µM (inactive) | > 100 | > 100 µM (inactive) | > 100 µM (inactive) | > 100 µM (inactive) |  | > 100 µM (inactive) | > 100 µM (inactive) |  | > 100 µM (inactive) | 58.3 µM (inactive)
C#CCOCn1cc(C)c(=O)[nH]c1=O | > 100 µM (inactive) | > 100 µM (inactive) | > 100 µM (inactive) | > 100 µM (inactive) | > 100 µM (inactive) | > 100 µM (inactive) | > 100 µM (inactive) | > 100 | > 100 µM (inactive) | > 100 µM (inactive) | > 100 µM (inactive) |  | > 100 µM (inactive) | > 100 µM (inactive) | > 100 µM (inactive) | > 100 µM (inactive) | > 100 µM (inactive)
CCOC(=O)C1(C(=O)OCC)[C@H](c2ccccc2)C2=NO[C@@H]3CCC[C@H]1[C@H]23 |  | > 100 µM (inactive) | > 100 µM (inactive) | 30.8 µM (inactive) | 57.4 µM (inactive) | 26.5 µM (inactive) | > 100 µM (inactive) | 43.6 | 60.5 µM (inactive) | 41.4 µM (inactive) | 15.2 µM (inactive) | 37.9 µM (inactive) | 33.8 µM (inactive) | 34.8 µM (inactive) | > 100 µM (inactive) | 39.4 µM (inactive) | 30.1 µM (inactive)
CC(=N\N)/C(C)=N/N=C(C)/C(C)=N/N | > 100 µM (inactive) | > 100 µM (inactive) | > 100 µM (inactive) | > 100 µM (inactive) | > 100 µM (inactive) | > 100 µM (inactive) | > 100 µM (inactive) | > 100 | > 100 µM (inactive) | > 100 µM (inactive) |  | > 100 µM (inactive) | > 100 µM (inactive) | > 100 µM (inactive) | > 100 µM (inactive) | > 100 µM (inactive) | > 100 µM (inactive)

— ChEMBL document CHEMBL1201862, “PubChem BioAssay data set” (2004)
